Biological target: T1, catalytic domain of human Bub1 (amino acids 704-1085) (Homo sapiens, UniProt O43683)
T1 construct: catalytic domain of human Bub1 (amino acids 704-1085); His6 (N); made in house; host or cells: insect cells (Hi5)
Assay: Bub1 kinase assay (TR-FRET)
Type: biochemical
Conditions: 10 μM ATP, avg, read-out: Bub1 avg (IC50 [mol/l])
Outline: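 Readout is the 665/620 nm TR-FRET ratio from anti-phosphoserine antibody, Eu-labelled anti-mouse IgG and streptavidin-XL665, scaled between no-enzyme and uninhibited controls. Reaction: 1 μM biotinylated peptide, 10 μM ATP, 60 min, 22 °C, after 15 min compound preincubation with His6-Bub1 (704-1085, insect-expressed, ~200 ng/ml).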

T1 sequence (O43683 704-1085): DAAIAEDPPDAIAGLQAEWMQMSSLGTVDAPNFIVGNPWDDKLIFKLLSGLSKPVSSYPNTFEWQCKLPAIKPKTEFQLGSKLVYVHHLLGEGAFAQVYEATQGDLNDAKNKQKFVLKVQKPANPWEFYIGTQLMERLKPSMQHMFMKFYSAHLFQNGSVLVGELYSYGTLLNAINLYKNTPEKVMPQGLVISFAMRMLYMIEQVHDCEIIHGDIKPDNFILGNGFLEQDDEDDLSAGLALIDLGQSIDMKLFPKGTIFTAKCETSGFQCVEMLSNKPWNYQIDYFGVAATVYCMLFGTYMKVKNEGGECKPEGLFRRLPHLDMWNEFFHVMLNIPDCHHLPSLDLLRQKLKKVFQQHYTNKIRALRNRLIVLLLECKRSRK

Q: Cc1nsc(Nc2cnc(C(F)(F)F)cn2)c1C(=O)Nc1ccc(OCC2CCN(CCC(F)(F)F)CC2(F)F)nc1 (stereo not drawn) [Example 402, N-(6-{[3,3-difluoro-1-(3,3,3-trifluoropropyl)piperidin-4-yl]methoxy}pyridin-3-yl)-3-methyl-5-{[5-(trifluoromethyl)pyrazin-2-yl]amino}-1,2-thiazole-4-carboxamide] was tested. Which IC50 did it give?
A: > 20 µM

Q: How did the IC50 turn out when CCN1CC[C@H](Oc2ccc(NC(=O)c3c(C)nsc3Nc3cnc(C(F)(F)F)cn3)cn2)[C@H](F)C1 [Example 424, N-(6-{[(3R,4S)-1-Ethyl-3-fluoropiperidin-4-yl]oxy}pyridin-3-yl)-3-methyl-5-{[5-(trifluoromethyl)pyrazin-2-yl]amino}-1,2-thiazole-4-carboxamide] was run?
A: > 20 µM

Q: With Cc1nsc(Nc2cnccn2)c1C(=O)Nc1ccc(OC2CCCN(C(=O)OC(C)(C)C)C2)nc1 (stereo not drawn) [Example 41, tert-Butyl 3-{[5-({[3-methyl-5-(pyrazin-2-ylamino)-1,2-thiazol-4-yl]carbonyl}amino)-pyridin-2-yl]oxy}piperidine-1-carboxylate] as the compound, how does the IC50 read?
A: ≥ 20 µM

Q: For Cc1nsc(Nc2cc(C#N)ccn2)c1C(=O)Nc1ccc(OCCCN)nc1 [Example 44, N-[6-(3-Aminopropoxy)pyridin-3-yl]-5-[(4-cyanopyridin-2-yl)amino]-3-methyl-1,2-thiazole-4-carboxamide], which IC50 is on record?
A: ≥ 20 µM

Q: Cc1nsc(Nc2cnc3ccccc3n2)c1C(=O)Nc1cccc(C(=O)NC(C)(C)C)c1 [Example 53, N-[3-(tert-Butylcarbamoyl)-phenyl]-3-methyl-5-(quinoxalin-2-ylamino)-1,2-thiazole-4-carboxamide] was tested. Which IC50 did it give?
A: 9 µM

Q: Which IC50 does the source give for Cc1nsc(Nc2cnc(C(F)(F)F)cn2)c1C(=O)Nc1ccc(F)c(O[C@H]2CCN(CC(F)F)C2)c1 [Example 417, N-(3-{[(3S)-1-(2,2-Difluoroethyl)pyrrolidin-3-yl]oxy}-4-fluorophenyl)-3-methyl-5-{[5-(trifluoromethyl)pyrazin-2-yl]amino}-1,2-thiazole-4-carboxamide] here?
A: 1.8 µM

Q: Cc1nsc(Nc2cnc3ccccc3n2)c1C(=O)Nc1cccc(C(=O)NCC(=O)OC(C)(C)C)c1 [Example 54, tert-Butyl N-[3-({[3-methyl-5-(quinoxalin-2-ylamino)-1,2-thiazol-4-yl]carbonyl}amino)-benzoyl]glycinate] was tested. Which IC50 did it give?
A: 16 µM

Q: Which IC50 does the source give for Cc1nsc(Nc2cnc(C(F)(F)F)cn2)c1C(=O)Nc1ccc(F)c(OC[C@H]2CCCN(CCC(F)(F)F)C2)c1 [Example 418, N-(4-Fluoro-3-{[(3S)-1-(3,3,3-trifluoropropyl)piperidin-3-yl]methoxy}phenyl)-3-methyl-5-{[5-(trifluoromethyl)pyrazin-2-yl]amino}-1,2-thiazole-4-carboxamide] here?
A: > 20 µM

Q: For Cc1nsc(Nc2nc3c(C(F)(F)F)cccc3s2)c1C(=O)Nc1ccc(OCCO)c(F)c1 [Example 4, N-[3-Fluoro-4-(2-hydroxyethoxy)phenyl]-3-methyl-5-{[4-(trifluoromethyl)-1,3-benzothiazol-2-yl]amino}-1,2-thiazole-4-carboxamide], which IC50 is on record?
A: ≥ 20 µM

Q: For Cc1nsc(Nc2cnc(C(F)(F)F)cn2)c1C(=O)Nc1ccc(OC[C@H]2CCN(CC(F)(F)F)C2)nc1 [Example 404, 3-Methyl-N-(6-{[(3S)-1-(2,2,2-trifluoroethyl)pyrrolidin-3-yl]methoxy}pyridin-3-yl)-5-{[5-(trifluoromethyl)pyrazin-2-yl]amino}-1,2-thiazole-4-carboxamide], which IC50 is on record?
A: > 20 µM

Q: For Cc1nsc(Nc2cnc3ccccc3n2)c1C(=O)Nc1cccc(C(=O)O)c1 [Example 51, 3-({[3-Methyl-5-(quinoxalin-2-ylamino)-1,2-thiazol-4-yl]carbonyl}amino)benzoic acid], which IC50 is on record?
A: 1.9 µM

Q: COCCOc1ccc(NC(=O)c2c(C)nsc2Nc2nc3c(C(F)(F)F)cccc3s2)cc1F [Example 1, N-[3-Fluoro-4-(2-methoxyethoxy)phenyl]-3-methyl-5-{[4-(trifluoromethyl)-1,3-benzothiazol-2-yl]amino}-1,2-thiazole-4-carboxamide] was tested. Which IC50 did it give?
A: ≥ 20 µM
